Some test systems named below: DMS-273; M19-MEL; DMS-114; LXFL 529; SNB-78; RXF 631; XF498; DLD-1; HOP-18.
What all share (assay): NCI-60 cell line screen, 48 h

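Step 1: Grow cells in 96-well plates. Step 2: Expose to compound for 48 hours at 5 concentrations. Step 3: Interpolate endpoints linearly; if unreached, use highest concentration. At the GI50, growth is halved.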 The source made the active and inactive calls. Rule as the data show it: active = GI50 up to about 1.1 µM and inactive = higher.

Turning to `Cc1cc2c(c3oc(C(O)(CO)C4CO4)cc(=O)c13)C(=O)c1c(O)cccc1C2=O` (stereo not drawn), the GI50 was < 0.01 µM (active) with DMS-273; < 0.01 µM (active) in the experiment on M19-MEL; < 0.01 µM (active) in the experiment on DMS-114; < 0.01 µM (active) with LXFL 529; 0.031 µM (active) in the experiment on SNB-78; < 0.01 µM (active) in the experiment with RXF 631. Further, the GI50 in the experiment on XF498, in the experiment with DLD-1 and in the experiment with HOP-18 was < 0.01 µM (active) throughout.

Regarding `COC1OC(CO)C(O)C(OC(C)=O)C1NC(=O)N(CCCl)N=O` (stereo not drawn), the GI50 in the experiment on DMS-273, in the experiment on M19-MEL, in the experiment with DMS-114, in the experiment on LXFL 529, in the experiment on SNB-78 and with RXF 631 was > 100 µM (inactive) throughout. The GI50 in the experiment on XF498, in the experiment with DLD-1 and with HOP-18 was > 100 µM (inactive) throughout.

The values are drawn from ChEMBL document CHEMBL1201862, “PubChem BioAssay data set” (2004).
